Test results from patent US20220296595A1, “CDK INHIBITORS” (QILU REGOR THERAPEUTICS INC., priority 2019, published 2022).
Where two headings read alike, the source gives them in different places.

What was measured:
[1] = biological target: T1, CDK2/CyclinE1 (Homo sapiens, UniProt P24941); test: Assay for inhibition of CDK2/CyclinE1 (Caliper microfluidic kinase assay); type: biochemical
T1 construct: purchased SignalChem C29-18G
In short: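 IC50 came from 4-parameter fits of substrate-to-product conversion, separated on a Caliper chip after an EDTA stop. Reactions ran 3 hours at room temperature with 100 μM ATP, 5 μM fluorescent FL-18 peptide and 5 nM enzyme in 100 mM HEPES pH 7.5, 10 mM MgCl2.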

[2] = biological target: T2, CDK4/CyclinD1 (Homo sapiens, UniProt P11802); test: Assay for inhibition of CDK4/CyclinD1 (Caliper microfluidic kinase assay); type: biochemical
T2 construct: purchased Thermofisher PR8064A
T2 sequence (P11802 whole entry): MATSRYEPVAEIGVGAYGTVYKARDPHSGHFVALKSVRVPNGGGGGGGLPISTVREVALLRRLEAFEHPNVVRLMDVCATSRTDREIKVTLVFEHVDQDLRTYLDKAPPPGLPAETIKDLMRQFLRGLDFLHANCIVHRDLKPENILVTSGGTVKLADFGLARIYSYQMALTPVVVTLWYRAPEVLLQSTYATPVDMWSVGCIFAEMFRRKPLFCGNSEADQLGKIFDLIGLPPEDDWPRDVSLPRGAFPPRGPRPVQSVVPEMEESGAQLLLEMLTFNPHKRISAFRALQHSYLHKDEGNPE
T2 sequence (P24385 whole entry partner): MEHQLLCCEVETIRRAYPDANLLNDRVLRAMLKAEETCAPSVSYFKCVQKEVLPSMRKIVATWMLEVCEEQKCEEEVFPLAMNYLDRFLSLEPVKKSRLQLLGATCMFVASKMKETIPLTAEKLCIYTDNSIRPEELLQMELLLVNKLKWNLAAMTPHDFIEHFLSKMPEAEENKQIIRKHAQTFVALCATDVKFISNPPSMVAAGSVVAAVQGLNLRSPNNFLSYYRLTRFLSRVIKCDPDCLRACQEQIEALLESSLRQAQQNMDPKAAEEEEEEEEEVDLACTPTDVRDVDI
In short: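 IC50 was obtained by 4-parameter sigmoidal fitting after 1 nM CDK4/CyclinD1, 200 μM ATP and 1 μM FL-34 substrate reacted for 3 h at room temperature (pH 7.5 HEPES, 10 mM MgCl2). After EDTA quench, substrate and product were separated and detected on a Caliper microfluidic chip.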

[3] = biological target: T3, CDK6/CyclinD3 (Homo sapiens, UniProt Q00534); test: Assay for inhibition of CDK6/CyclinD3 (Caliper microfluidic kinase assay); type: biochemical
T3 construct: purchased Carna 04-107
T3 sequence (Q00534 whole entry): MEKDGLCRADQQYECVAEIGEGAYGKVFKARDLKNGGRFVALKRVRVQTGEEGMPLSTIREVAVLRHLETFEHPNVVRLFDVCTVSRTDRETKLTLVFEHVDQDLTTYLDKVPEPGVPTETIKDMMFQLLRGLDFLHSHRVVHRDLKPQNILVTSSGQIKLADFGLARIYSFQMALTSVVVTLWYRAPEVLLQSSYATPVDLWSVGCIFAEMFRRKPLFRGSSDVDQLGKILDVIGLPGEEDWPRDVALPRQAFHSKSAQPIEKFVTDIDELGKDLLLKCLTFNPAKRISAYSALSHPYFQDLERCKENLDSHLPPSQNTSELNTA
T3 sequence (P30281 whole entry partner): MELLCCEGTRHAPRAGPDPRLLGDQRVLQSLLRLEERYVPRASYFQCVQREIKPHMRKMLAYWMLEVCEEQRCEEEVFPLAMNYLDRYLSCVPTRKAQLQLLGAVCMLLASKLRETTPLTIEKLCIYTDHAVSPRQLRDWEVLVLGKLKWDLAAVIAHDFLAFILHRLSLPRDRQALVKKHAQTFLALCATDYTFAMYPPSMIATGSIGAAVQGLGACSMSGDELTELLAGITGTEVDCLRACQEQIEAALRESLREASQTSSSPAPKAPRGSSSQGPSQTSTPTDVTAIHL
Experimental: The CDK6 enzyme assay for IC50 determination was performed as follows. Microfluidic kinase detection technology (Caliper) was used to monitor the phosphorylation of peptide substrate by CDK6/CyclinD3. The total reaction volume is 15 μL containing buffer A (100 mM HEPES (pH 7.5), 0.1% BSA, 0.01% Triton X-100, 1 mM DTT, 10 mM MgCl2, 10 μM Sodium Orthovanadate, 10 μM Beta-Glycerophosphate), 300 μM ATP, 2 nM CDK6/CyclinD3 (Carna, 04-107), 1 μM FL-34 (5-FAM-[…]), and the test compound at appropriate dilutions in DMSO. All components were added to the 384-well plate (Corning, 4514), and incubated at Room Temperature for 3 hours. The reaction was terminated by addition of 15 μL Stop Buffer (180 mM HEPES (pH 7.5), 20 mM EDTA, Coating-3 reagent (PerkinElmer, 760050)). The plate was then loaded on Caliper EZ Reader (EZ Reader II, PerkinElmer, HD-4HYSG2772), and the reaction mixtures including substrate and product were sipped into the microfluidic chip for separation and detection. The IC50 values of the test compound were determined by fitting the inhibition curves by 4 parameter sigmoidal dose-response model using the Xlfit5/GraphPad Prism 5 software.

[4] = test system: T47D breast cancer cells; test: Anti-proliferation assay in T47D cell (Cyquant, day 6); type: cell-based, human; conditions: anti-proliferation, T47D cells, read-out: T47D IC50
Excerpt: T47D is a human breast cancer cell line commonly used in biomedical research involving the hormonal expression of cancer cells. T47D cells are distinct from other human breast cancer cells in that their progesterone receptors (PR) are not regulated by estradiol, a hormone that is abundant within the cells themselves. T47D cells have been employed in studies of the effects of progesterone on breast cancer and the corresponding transcriptional regulation caused by introduced drugs. The cells have been noted to be extremely resistant to estrogens and antiestrogens.
T47D breast cancer cells from American Type Culture Collection (ATCC, HTB-133) were plated at 3000 cells/well in 96-well plates, and were incubated in RPMI 1640 medium (Gibco, 31800105) with 10% Fetal Bovine Serum (FBS, Biowest, FB-1058) at 37° C., 5% CO2. After overnight incubation, baseline values were measured of the samples from one plate using Cyquant reagent (Invitrogen, C35011) following manufacturer's recommendations. Cells were incubated with the detection reagent for 1 hour at 37° C., and then the fluorescence was measured with excitation at 485 nm and emission at 535 nm using Spectra Max M5 (Molecular Devices, HD-4HYSG3196). Other plates were dosed with compounds at a ten-point dose concentration from 10 μM to 0.51 nM in a 3-fold dilution scheme. On day 6 after compound addition, Cyquant reagent was added and the fluorescence was measured using Spectra Max M5. The IC50 values of the test compound's anti-proliferation activity were determined from the baseline subtracted viability readout curve using Xlfit5/GraphPad Prism 5 software.

[5] = CDK2/CyclinE1, 100 μM ATP, read-out: CDK2 IC50
[6] = CDK2/CyclinE1, read-out: CDK2 IC50

SMILES	IC50 [1, 5] [nM]	IC50 ([2]; CDK4/CyclinD1, 200 μM ATP) [nM]	IC50 ([3]; CDK6/CyclinD3, 300 μM ATP) [nM]	other results
CC(C)c1cnn2ccc(-c3ccnc(Nc4ccc(N5CCC(N(C)C)CC5)cn4)n3)cc12 (single isomer, unassigned) [Synthetic Example 161, N-[5-[4-(dimethylamino)-1-piperidyl]-2-pyridyl]-4-(3-isopropylpyrazolo[1,5-a]pyridin-5-yl)pyrimidin-2-amine]	< 10	< 10	< 10	IC50 [4]: < 100 nM
C=CC(=O)Nc1cc(Nc2ncc(F)c(-c3ccn4nc(C)c(C)c4c3)n2)c(OC)cc1N(C)CCN(C)C [Compound 10 disclosed in CN109503573A, reference compound]				IC50 ([2]; comparative compound): > 10000 nM; IC50 ([3]; comparative compound): > 10000 nM
CC(C)c1cnn2ccc(-c3nc(NC4CCN(S(C)(=O)=O)CC4)ncc3F)cc12 [Synthetic Example 10]	10 to 100	10 to 100	100 to 1000	IC50 ([4]; Homo sapiens, T47D): 100 to 500 nM
CC(C)c1cnn2ccc(-c3ccnc(Nc4ccc(N5CCC(N(C)C)CC5=O)cn4)n3)cc12 (stereo not shown) [Synthetic Example 16]	10 to 100	< 10	< 10	
CCN1CCN(Cc2ccc(Nc3ncc(F)c(-c4cc5c(C(C)C)n(C)nc5cn4)n3)nc2)CC1 [Synthetic Example 58]		100 to 1000	> 1000	IC50 ([4]; Homo sapiens, T47D): > 1000 nM
CCN1CCN(Cc2ccc(Nc3ncc(F)c(-c4cn5c(C(C)C)cnc5c(OC)n4)n3)nc2)CC1 [Synthetic Example 60]		10 to 100	100 to 1000	
COc1nc(-c2nc(Nc3ccc(N4CCN(CCS(C)(=O)=O)CC4=O)cn3)ncc2F)cc2c1nc(C)n2C(C)C [Synthetic Example 121]	> 1000	< 10	10 to 100	
COc1nc(-c2nc(Nc3ccc(N4CCN(C5CNC5)CC4=O)cn3)ncc2F)cc2c1nc(C)n2C(C)C [Synthetic Example 138]	100 to 1000	< 10	10 to 100	
CC(C)N1CCN(c2ccc(Nc3nccc(-c4cc5c(ncn5C(C)C)c(F)n4)n3)nc2)CC1 [Synthetic Example 287]	100 to 1000	< 10	10 to 100	
CC(C)c1cnn2ccc(-c3nc(Nc4ccc(N5CCOCC5=O)cn4)ncc3F)cc12 [compound 2]	< 10	< 10	10 to 100	IC50 ([4]; Homo sapiens, T47D): < 100 nM
CC(C)c1cnn2ccc(-c3nc(Nc4ccc(CN5CCN6CCCC6C5)cn4)ncc3F)cc12 (stereo not shown) [compound 8]	> 1000	10 to 100	100 to 1000	IC50 ([4]; Homo sapiens, T47D): > 1000 nM
CC(C)c1cnn2ccc(-c3nc(Nc4ccc(N5CCC(N(C)C)CC5)cn4)ncc3F)cc12 [compound 9]	100 to 1000	< 10	10 to 100	IC50 ([4]; Homo sapiens, T47D): 100 to 500 nM
CC(C)c1cnn2ccc(-c3nc(Nc4ccc(N5CCOCC5)cn4)ncc3F)cc12 [compound 13]		10 to 100	10 to 100	IC50 ([4]; Homo sapiens, T47D): 100 to 500 nM
O=C1COCCN1c1ccc(Nc2ncc(F)c(-c3ccn4ncc(C5=CCOCC5)c4c3)n2)nc1 [compound 17]		10 to 100	100 to 1000	
O=C1COCCN1c1ccc(Nc2ncc(F)c(-c3ccn4ncc(C5CCOCC5)c4c3)n2)nc1 [compound 18]		10 to 100	100 to 1000	IC50 ([4]; Homo sapiens, T47D): 500 to 1000 nM
C=C(C)c1cnn2ccc(-c3nc(Nc4ccc(CN5CCN(CC)CC5)cn4)ncc3F)cc12 [compound 19]		10 to 100	100 to 1000	
CCN1CCN(Cc2ccc(Nc3ncc(F)c(-c4ccn5ncc(Br)c5c4)n3)nc2)CC1 [compound 20]		100 to 1000	> 1000	
CCN1CCN(Cc2ccc(Nc3ncc(F)c(-c4ccn5ncc(C(C)C)c5c4)n3)nc2)CC1 [compound 22]		< 10	10 to 100	
CC(C)c1cnn2ccc(-c3nc(Nc4ccc(N5CCOCC5=O)c(C(F)(F)F)c4)ncc3F)cc12 [compound 23]		10 to 100	10 to 100	IC50 ([4]; Homo sapiens, T47D): 500 to 1000 nM

SMILES	IC50 [1, 5] [nM]	IC50 ([2]; CDK4/CyclinD1, 200 μM ATP) [nM]	IC50 ([3]; CDK6/CyclinD3, 300 μM ATP) [nM]	other results
CCN1CCN(Cc2cccc(Nc3ncc(F)c(-c4ccn5ncc(C(C)C)c5c4)n3)n2)CC1 [compound 24]		100 to 1000	> 1000	
CC(C)c1cnn2ccc(-c3ccnc(Nc4ccc(N5CCNCC5=O)nc4)n3)cc12 [compound 35]			10 to 100	
CCn1cnc2c(OC)nc(-c3nc(Nc4ccc(N5CCOCC5=O)cn4)ncc3F)cc21 [compound 84]				IC50 [1, 6]: > 1000 nM; IC50 ([2]; CDK4/CyclinD1): 10 to 100 nM; IC50 ([3]; CDK6/CyclinD3): 100 to 1000 nM
CCN1CCN(Cc2ccc(Nc3ncc(F)c(-c4cc5c(ncn5C(C)C)c(OC)n4)n3)nc2)CC1 [compound 87]				IC50 ([2]; CDK4/CyclinD1): < 10 nM; IC50 ([3]; CDK6/CyclinD3): 10 to 100 nM; IC50 ([4]; Homo sapiens, T47D): 100 to 500 nM
COc1nc(-c2nc(Nc3ccc(N4CCOCC4=O)cc3F)ncc2F)cc2c1nc(C)n2C(C)C [compound 92]				IC50 [1, 6]: 10 to 100 nM; IC50 ([2]; CDK4/CyclinD1): < 10 nM; IC50 ([3]; CDK6/CyclinD3): 10 to 100 nM
CCN1CCN(Cc2ccc(Nc3ncc(F)c(-c4cc5c(nc(C)n5C(C)C)c(OC)n4)n3)nc2)CC1 [compound 95]				IC50 [1, 6]: > 1000 nM; IC50 ([2]; CDK4/CyclinD1): 10 to 100 nM; IC50 ([3]; CDK6/CyclinD3): 10 to 100 nM
COc1nc(-c2nc(Nc3ccc(CN4CCN5CCCC5C4)cn3)ncc2F)cc2c1nc(C)n2C(C)C (stereo not shown) [compound 101]				IC50 ([2]; CDK4/CyclinD1): 10 to 100 nM; IC50 ([3]; CDK6/CyclinD3): 10 to 100 nM
COc1nc(-c2nc(NC3CCN(S(C)(=O)=O)CC3)ncc2F)cc2c1nc(C)n2C(C)C [compound 102]				IC50 [1, 6]: 100 to 1000 nM; IC50 ([2]; CDK4/CyclinD1): 10 to 100 nM; IC50 ([3]; CDK6/CyclinD3): 100 to 1000 nM
COc1nc(-c2nc(Nc3ccc(N4CCN(C5CCNCC5)CC4=O)cn3)ncc2F)cc2c1nc(C)n2C(C)C [compound 139]	> 1000	< 10	< 10	
Cc1nn2ccc(-c3ccnc(Nc4ccc(N5CCC(N(C)C)CC5=O)cc4)n3)cc2c1C(C)C (stereo not shown) [compound 177]	< 10	< 10	< 10	
CC(C)c1cnn2ccc(-c3ccnc(Nc4ccc5c(c4)CS(=O)(=O)C5)n3)cc12 [compound 179]	< 10	< 10	< 10	
CC(C)c1cnn2ccc(-c3ccnc(Nc4ccc(N5CCC(O)CC5=O)cn4)n3)cc12 (stereo not shown) [compound 183]	10 to 100	10 to 100	10 to 100	
CNC1CCN(C(=O)c2ccc(Nc3nccc(-c4ccn5ncc(C(C)C)c5c4)n3)cc2)C1 (stereo not shown) [compound 189]		< 10	< 10	IC50 [1]: < 10 nM
CC(C)c1cnn2ccc(-c3ccnc(Nc4ccc(N5CCC(C)(N)CC5=O)cc4F)n3)cc12 (stereo not shown) [compound 213]	< 10	< 10	10 to 100	
CC(C)c1cnn2ccc(-c3ccnc(Nc4ccc(N5CCNCC5=O)cc4F)n3)cc12 [compound 224]	< 10	< 10	10 to 100	
CC(C)(C)c1cnn2ccc(-c3ccnc(Nc4ccc(N5CCNCC5=O)cc4F)n3)cc12 [compound 225]	< 10	< 10	10 to 100	
Cc1nc2c(F)nc(-c3ccnc(Nc4ccc(S(N)(=O)=O)cc4)n3)cc2n1C(C)C [compound 288]	< 10	10 to 100	10 to 100	
CC(C)n1cnc2c(F)nc(-c3ccnc(Nc4ccc(N5CCC(C)(N)CC5=O)cc4F)n3)cc21 (stereo not shown) [compound 292]	< 10	< 10	< 10	
CC(C)n1cnc2c(F)nc(-c3ccnc(Nc4ccc(S(N)(=O)=O)cc4)n3)cc21 [compound 297]	< 10	< 10	10 to 100	
